Reference: US20070292440A1, “CD154 blockade therapy for pancreatic islet tissue transplantation” (priority 1997, published 2007)
“And” between values parts separate entries of the source, which are not always exact repeats. Equal entries are not always repeated.

Legend:
[1] = system: islet allografts in pancreatectomized baboons; experiment: Baboon model of islet cell transplantation (ICT) for pancreatectomy-induced diabetes; type: in vivo, Baboon (Papio hamadryas)
Experimental: Identification of donor-recipient pairs. Peripheral blood mononuclear cells (PBMC) from 10 potential recipients (Baboons, Papio hamadryas, male and female, 1-2 years of age, approximately 4.0 kg) from the Mannheimer facility (Homestead, Fla.) were used as responders against PBMC from 11 male donors (over 2 years of age, purchased from the Southwest Foundation in Texas) in a one way mixed leukocyte culture (MLC). The baboon MLC was performed via standardized methods for human MLC. […] The donors were of a sufficient size that enough islets and bone marrow were obtained from 1 donor to allow for transplantation into 2 recipients. […] An attempt was made to choose two recipients with similar MLC reactivity to the designated donor, and donor-recipient pairs with varying degrees of alloreactivity were chosen.
Islet/bone marrow preparation and administration.
For studies on enhancing tolerance, vertebral body was harvested from the pancreas donor and processed to obtain donor bone marrow cells (DBMC) generally according to routine modifications of methods for processing of human vertebral bodies. For recipients of donor bone marrow, infusions were administered on days 5 and II post ICT. A total dose of 10^9 nucleated cells per kg recipient body weight was given.
Pancreatectomy and ICT. […] The number of IEQ was determined immediately prior to transplantation. Total pancreatectomy was performed according to established surgical techniques. After completion of the total pancreatectomy, a 20G angiocatheter was inserted into one of the mesenteric vessel tributaries of the portal vein, and ICT was accomplished by gravity infusion of the islet preparation over a 10 min period.
Immunosuppression and post-operative care. FK506 (tacrolimus) was chosen as the immunosuppressant, as this drug is currently utilized in human ICT. FK506 administration commenced at 5 days prior to ICT. A dosage of 0.1 mg/kg/day, i.m. was administered to recipient baboons. Drug levels were monitored daily and dosage was adjusted to maintain trough levels of approximately 15 ng/ml.
For the first post-operative day (study day 1, or POD 1), the baboons were given intravenous fluids. The animals were subsequently fed a diet containing 60 g of carbohydrate per day, with 45 g of monkey biscuits (supplemented with viokase) and 15 g of fruit.
Monitoring. Fasting and post-prandial blood glucose (FG and PPG, respectively) were monitored via heel stick and blood testing with a Glucometer Elite, and at least once weekly, a blood sample was drawn to obtain plasma for testing of FG levels with a Beckman glucose analyzer. In general a blood sample was also obtained to confirm unusually high readings. […] At approximately 3 months post-transplant, testing was decreased to every other week. The blood samples were used for phenotyping of peripheral blood to assess leukocyte subsets and determination of CBC and chemistries, 5c8 and anti-5c8 levels, insulin and C-peptide levels, and chimerism. Blood was drawn periodically for retesting of MLC reactivity to donor and 3rd party antigens.

[2] = system: islet allografts in pancreatectomized diabetic rhesus monkeys; experiment: Rhesus monkey model of ICT for pancreatectomy-induced diabetes; type: in vivo; settings: induction days -1, 0, 3, 10 + monthly maintenance, monotherapy
Experimental: Unless specified, all procedures were generally as described above for the baboon model studies.
Animal procedures. SPF rhesus monkeys, 2-7 years of age, are readily available from COVANCE (Alice, Tex.) or the Mannheimer Foundation, Inc. (Homestead, Fla.) or similar vendors. Upon admission, all monkeys are examined to determine their general health, physical condition, and psychological status. All surgical procedures are carried under aseptic conditions. Animals are fasted for 12-18 hours before surgery and will be pre-anesthetized with i.m. ketamine (10 mg/kg) and atropine (0.04 mg/kg). Once the animal is sedated, an endotracheal tube and an i.v. catheter are promptly installed. The endotracheal tube is used to protect the airway and provide easy access for emergency drugs. The animals are anesthetized with an isoflurane and oxygen combination. Normal saline solution for injection is infused through the catheter throughout the entire ICT procedure at a rate of 10 ml/kg/hour.
A midline incision is made to gain access to the abdominal organs. For both donor and recipient animals, a total pancreatectomy is performed with preservation of the duodenum. […]
Monitoring. […] Fasting blood glucose (FG) levels are determined by using a lancet to prick the heel, to obtain a small drop of blood for placement on a glucometer strip. […]

[3] = system: islet allograft function (glucose metabolism) in baboons; experiment: Intravenous glucose tolerance testing (IVGTT) of baboon islet allograft recipients; type: in vivo, Baboon (Papio hamadryas)
Experimental: Intravenous Glucose Tolerance Testing (IVGTT). It has been previously shown that in vivo islet-cell function tests give an accurate reflection of changes in β cell mass. (McCulloch et al., Diabetes 40: 673-679, 1991). Intravenous glucose tolerance tests were carried out after a 16- to 18-h overnight fast, as previously described (Lehmann et al., J. Med. Primatol. 26: 312-321, 1997). In brief, blood samples were collected at −10, −5, and 0 min. Then 0.5 g glucose per kg of body weight in a 50% glucose solution was injected over 20 seconds into the saphenous vein. 1.5 ml samples were collected from the contralateral femoral artery at 1, 3, 5, 7, 10, 15, 20, 25, 30 min post injection. Thus, a total of 12 blood samples were withdrawn over a […] period. The samples were drawn into glass tubes containing 0.05 ml 15% fluid EDTA and 0.2 ml trasylol (500 K.I.U. aprotinin/ml blood), placed on ice, and centrifuged within 10 minn. Plasma was then frozen at −80° C. and assayed later for glucose, immunoreactive insulin, and glucagon.
Statistical analysis and calculations. Results are set forth as means ±SEM. The glucose disappearance constant (Kg) was calculated from the IVGTT as the slope of the decline of the loge (In) plasma glucose between 10 and 30 min. after the glucose injection, multiplied by 100. The acute insulin response to glucose (AIRG) was calculated as the incremental area under the insulin curve (AUC) between 1-10 min after the IV glucose injection. The incremental responses (AUCGlucose, AUCInsulin) were calculated by means of the trapezoidal rule with subtraction of the basal values from 1 to 30 minutes, Data were analyzed with Statistica for Windows software (Version 5.0, 1997. Statsoft Inc., Tulsa, Okla., USA).

C=CC[C@@H]1/C=C(\C)C[C@H](C)C[C@H](OC)[C@H]2O[C@@](O)(C(=O)C(=O)N3CCCC[C@H]3C(=O)O[C@H](/C(C)=C/[C@@H]3CC[C@@H](O)[C@H](OC)C3)[C@H](C)[C@@H](O)CC1=O)[C@H](C)C[C@@H]2OC [FK506, tacrolimus, reference compound]
day of islet allograft rejection ([1]; Baboon, FK506 alone): 10 day | day of islet allograft rejection ([1]; Baboon, FK506 in combination with stem cell selected marrow): 10 day | day of islet allograft rejection ([1]; Baboon, FK506 in combination with whole bone marrow): 8 day

Anti-CD154: humanized MAb having the antigen-specific binding properties of MAb 5c8; CD154 (CD40L) blocking agent
islet allograft survival versus control or FK506 treated animals ([1]; 4 out of 5 baboons): extended islet allograft survival | Duration (in PODs) of Insulin Independence ([1]; Baboon, Induction + Anti-Rejection regimen, animal received a reduced dose of 5c8): 8 PODs | POD until which graft was maintained after treatment for rejection ([1]; Baboon, induction 20 mg/kg days -1, 3, 10 + monthly maintenance from POD 28, bone marrow infusions PODs 5 and 11, listed as 5C8): 162 POD and 124 POD | graft survival of functioning islet allografts ([1]; Baboon, other animals in the study, range of survivals, listed as hu5c8): > 125 days and > 220 days | islet allograft function and rejection episodes [2]: functional islet allografts are maintained without the occurrence of rejection episodes | adverse effect on insulin secretion or overall insulin sensitivity ([3]; baboon studies): no adverse effect | FPIS (first phase insulin secretion) after islet transplantation ([3]; baboons on maintenance therapy, follow-up 16 weeks): well preserved | Kg values (glucose disappearance constant) in repeated IVGTT ([3]; baboons treated at the time of rejection, after 8 postoperative weeks): decline | Kg values (glucose disappearance constant) in repeated IVGTT ([3]; baboons treated with maintenance doses): Stable values
